Data: article PMC8498988, “Scaffold Hybridization Strategy Leads to the Discovery of Dopamine D3 Receptor-Selective or Multitarget Bitopic Ligands Potentially Useful for Central Nervous System Disorders” (ACS Chemical Neuroscience, 2021)

Tests used:
human 5-HT1AR = target: T1, human 5-HT1AR (Homo sapiens, UniProt P08908); test: Radioligand binding assay at human 5-HT1AR ([3H]8-OH-DPAT, HeLa cells); conditions: HeLa cells expressing h5-HT1AR, read-out: Ki ± SEM, 5-HT1AR
T1 construct: expressed in transfected cells; host or cells: HeLa
T1 sequence (P08908 1-422): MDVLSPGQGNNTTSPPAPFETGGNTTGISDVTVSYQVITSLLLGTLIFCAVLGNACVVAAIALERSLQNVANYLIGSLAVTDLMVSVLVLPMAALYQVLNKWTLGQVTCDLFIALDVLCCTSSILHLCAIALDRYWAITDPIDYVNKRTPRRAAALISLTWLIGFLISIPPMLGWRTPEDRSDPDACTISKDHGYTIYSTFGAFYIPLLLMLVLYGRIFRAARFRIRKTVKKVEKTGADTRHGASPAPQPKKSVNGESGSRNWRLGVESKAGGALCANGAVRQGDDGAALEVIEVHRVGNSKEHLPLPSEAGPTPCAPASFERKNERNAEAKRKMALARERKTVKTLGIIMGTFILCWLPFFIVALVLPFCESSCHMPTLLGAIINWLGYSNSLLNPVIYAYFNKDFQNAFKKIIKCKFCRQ
Description: A human cell line (HeLa) stably transfected with genomic clone G-21 coding for the human 5-HT1AR was used. Cells were grown as monolayers in Dulbecco’s modified Eagle’s medium supplemented with 10% fetal calf serum and gentamycin (100 μg/mL) under 5% CO2 at 37 °C. Cells were detached from the growth flask at 95% confluency by a cell scraper and were lysed in ice-cold Tris (5 mM) and EDTA buffer (5 mM, pH 7.4). Homogenates were centrifuged for 20 min at 40000g, and pellets were resuspended in a small volume of ice-cold Tris/EDTA buffer (above) and immediately frozen and stored at -70 °C until use. On the day of experiment, cell membranes (80–90 μg of protein) were resuspended in binding buffer (50 mM Tris, 2.5 mM MgCl2, and 10 mM pargyline, pH 7.4). Membranes were incubated in a final volume of 0.32 mL for 30 min at 30 °C with 1 nM [^3H]8-OH-DPAT in the absence or presence of various concentrations of competing drugs (1 pM to 1 μM); each experimental condition was performed in triplicate. Nonspecific binding was determined in the presence of 10 μM 5-HT.

D2R = D2R (Homo sapiens, UniProt P14416); test: D2 mitogenesis functional assay (CHOp-D2 cells); assay type: cell-based; design: expressed in transfected cells; host or cells: CHOp-D2 cells; conditions: for IC50 / % inhib., D2 mitogenesis assay: antagonist mode; for IC50: inhibition of quinpirole stimulation of mitogenesis; for % inhib., D2 mitogenesis assay: standard antagonist (+)-butaclamol; for functional behavior at D2R: in words
D2R, sequence (P14416 whole entry): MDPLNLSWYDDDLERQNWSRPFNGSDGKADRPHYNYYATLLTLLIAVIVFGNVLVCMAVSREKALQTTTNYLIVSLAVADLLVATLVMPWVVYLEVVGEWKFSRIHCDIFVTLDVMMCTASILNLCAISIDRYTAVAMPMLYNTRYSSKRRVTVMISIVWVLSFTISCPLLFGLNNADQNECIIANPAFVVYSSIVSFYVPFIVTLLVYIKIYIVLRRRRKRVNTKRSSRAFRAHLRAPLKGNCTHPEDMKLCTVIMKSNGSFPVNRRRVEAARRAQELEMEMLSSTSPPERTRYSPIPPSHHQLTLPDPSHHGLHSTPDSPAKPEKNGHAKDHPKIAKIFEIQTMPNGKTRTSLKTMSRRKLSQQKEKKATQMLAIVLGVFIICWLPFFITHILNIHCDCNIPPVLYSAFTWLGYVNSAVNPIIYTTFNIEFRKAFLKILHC
Description: CHOp-D2 and CHOp-D3 cells are maintained in α-MEM with 10% fetal bovine serum (FBS, Atlas Biologicals), 0.05% pen-strep, and 400 μg/mL of G418. […] The cells are incubated at 37 °C in α-MEM with 10% FBS. After 48–72 h, the cells are rinsed twice with serum-free α-MEM and incubated for 24 h at 37 °C. Serial dilutions of test compounds are made by the Biomek robotics system in serum-free α-MEM. In the functional assay for agonists, the medium is removed and replaced with 100 μL of test compound in serum-free α-MEM. In the antagonist assay, the serial dilution of the putative antagonist test compound is added in 90 μL (1.1× of final concentration) and 300 nM quinpirole (30 nM final) is added in 10 μL. After another 24 h (D2) or 16 h (D3) incubation at 37 °C, 0.25 μCi of [^3H]thymidine in αMEM supplemented with 10% FBS is added to each well, and the plates are further incubated for 2 h at 37 °C. The cells are trypsinized by addition of 10× trypsin solution (1% trypsin in calcium–magnesium-free phosphate-buffered saline), and the plates are filtered and counted as usual. Quinpirole is run each day as an internal control, and dopamine is included for comparative purposes.

5-HT2AR = 5-HT2AR (Homo sapiens, UniProt P28223); test: Radioligand binding assay at human 5-HT2AR ([125I]DOI, HEK cells); design: expressed in transfected cells; host or cells: HEK (HEK-h5HT2A); conditions: HEK cells expressing h5-HT2AR, read-out: Ki ± SEM, 5-HT2AR
5-HT2AR, sequence (P28223 whole entry): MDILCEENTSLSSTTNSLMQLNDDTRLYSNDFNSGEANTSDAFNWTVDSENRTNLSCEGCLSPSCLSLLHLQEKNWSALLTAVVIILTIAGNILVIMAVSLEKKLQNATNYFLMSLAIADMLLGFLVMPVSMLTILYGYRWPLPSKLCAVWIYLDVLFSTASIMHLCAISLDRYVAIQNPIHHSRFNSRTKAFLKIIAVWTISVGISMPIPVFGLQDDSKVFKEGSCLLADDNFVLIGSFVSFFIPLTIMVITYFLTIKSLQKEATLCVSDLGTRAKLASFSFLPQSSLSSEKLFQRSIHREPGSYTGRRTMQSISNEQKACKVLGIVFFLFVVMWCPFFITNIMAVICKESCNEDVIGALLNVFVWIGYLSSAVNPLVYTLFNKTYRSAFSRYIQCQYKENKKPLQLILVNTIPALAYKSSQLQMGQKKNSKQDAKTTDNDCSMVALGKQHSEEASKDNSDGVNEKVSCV
Description: (§1) Human embryonic kidney cells expressing human 5HT2AR (HEK-h5HT2A) or human 5HT2CR (HEK-h5HT2C) are used. The cells are grown until confluent on 15 cm plates. The medium is removed, and the cells are washed with phosphate-buffered saline (PBS), scraped into 2 mL PBS, and frozen at −20 °C until needed. Cell suspension is thawed, 10 mL assay buffer (50 mM Tris, pH 7.4 at 37 °C, with 0.1% ascorbic acid and 5 mM CaCl2) is added per plate of cells, and polytronned at setting 6 for 5 s. The homogenate is centrifuged at 15,500 rpm for 20 min. To minimize the residual 5HT concentration, the pellet is resuspended in buffer, polytronned, and centrifuged as mentioned above. The final pellet is resuspended in 2 mL buffer/plate of cells. The binding assay includes 50 μL drug, 5-HT or buffer, 50 μL cell homogenate, 50 μL [^125I]DOI (∼0.1 nM), and buffer in a final volume of 250 μL. Specific binding is defined as the difference between total binding and binding in the presence of 10 μM 5HT. The reaction is incubated for 1 h at 37 °C and terminated by filtration through Wallac A filter mats presoaked in 0.05% polyethylenimine using a Tomtec 96-well harvester. The radioactivity remaining on filters is determined using a Wallac betaplate reader.

5-HT2CR = target: T2, 5-HT2CR (Homo sapiens, UniProt P28335); test: Radioligand binding assay at human 5-HT2CR ([125I]DOI, HEK cells); design: expressed in transfected cells; host or cells: HEK (HEK-h5HT2C); conditions: HEK cells expressing h5-HT2CR, read-out: Ki ± SEM, 5-HT2CR
T2 sequence (P28335 33-458): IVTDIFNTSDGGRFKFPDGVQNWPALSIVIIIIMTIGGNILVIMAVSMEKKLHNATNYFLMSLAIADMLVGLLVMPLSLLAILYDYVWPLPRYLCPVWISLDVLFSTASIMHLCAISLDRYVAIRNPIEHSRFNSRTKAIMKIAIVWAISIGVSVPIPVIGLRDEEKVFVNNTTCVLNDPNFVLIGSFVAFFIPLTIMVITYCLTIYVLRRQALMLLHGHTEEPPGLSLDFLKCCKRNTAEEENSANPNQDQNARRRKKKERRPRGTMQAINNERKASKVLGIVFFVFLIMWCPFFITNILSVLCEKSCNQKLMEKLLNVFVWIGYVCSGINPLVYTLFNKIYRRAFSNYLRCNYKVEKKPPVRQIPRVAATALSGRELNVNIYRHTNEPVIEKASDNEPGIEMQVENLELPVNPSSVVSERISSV
Description: as §1

| Compound | Ki (human 5-HT1AR) | IC50 (D2R) | % inhib., D2 mitogenesis assay (D2R) | functional behavior at D2R (D2R) | Ki (5-HT2AR) | Ki (5-HT2CR) |
| --- | --- | --- | --- | --- | --- | --- |
| O=C(NCCCCN1CCN(c2cccc(Cl)c2Cl)CC1)C1COC(c2ccccc2)(c2ccccc2)CO1 (stereo not drawn) [compound 6, N-(4-(4-(2,3-Dichlorophenyl)piperazin-1-yl)butyl)-5,5-diphenyl-1,4-dioxane-2-carboxamide] | 9.1 ± 0.97 nM | 8.5 nM | (95.2) % | efficacious D2R and 5-HT2AR antagonists with high and low potency, respectively | 28 ± 6 nM | 90 ± 16 nM |
| O=C(NCCCCN1CCN(c2cccc(Cl)c2Cl)CC1)C1COc2ccccc2O1 (stereo not drawn) [compound 9, N-(4-(4-(2,3-Dichlorophenyl)piperazin-1-yl)butyl)-2,3-dihydrobenzo[b][1,4]dioxine-2-carboxamide] | 23.8 ± 5.2 nM | 40 nM | (94.4) % | efficacious D2R and 5-HT2AR antagonists with high and low potency, respectively | 62 ± 15 nM | 97 ± 25 nM |
| O=C(NCCCCN1CCN(c2cccc(Cl)c2Cl)CC1)C1COCC(c2ccccc2)(c2ccccc2)O1 (stereo not drawn) [compound 3, N-(4-(4-(2,3-Dichlorophenyl)piperazin-1-yl)butyl)-6,6-diphenyl-1,4-dioxane-2-carboxamide] | 288 ± 15 nM | 139 nM | (93.5) % | weak D2R antagonist | 257 ± 38 nM | 642 ± 80 nM |
